Assay results reported in US10111858B2, “Pharmaceutical for prophylaxis or treatment of hypertension” (Daiichi Sankyo Company, Limited, priority 2013, dated 2018).

Tests used:
Type in all cases: in vivo, rat
[1] = tested on: Dahl rats (salt-sensitive hypertensive rats); assay: Combined administration of MR antagonist and angiotensin II receptor antagonist: inhibitory action on blood pressure elevation (Example 1); settings: male Dahl rats, 8% salt diet, oral for 6 weeks, trough on day 42; compound (Ia) 1.0 mg/kg, olmesartan medoxomil 10 mg/kg, alone or combined; mean±standard error
Protocol: Male Dahl rats (DIS/Eis [Dahl-Iwai S], SPF grade, supplier: Japan SLC, Inc., salt-sensitive hypertensive rats) at 7 weeks of age were divided into groups (6 rats per group).
(§1) In a normal group and a control group, 0.5% methyl cellulose solution was orally administered for 6 weeks, and in the other groups, a test substance was orally administered for 6 weeks. The test substance was suspended in 0.5% methyl cellulose solution and administered at a volume of 2 mL/kg. Additionally, in the groups other than the normal group, an 8% salt diet (FR-2 containing 8% NaCl, manufactured by Funabashi Farm Co., Ltd.) was given ad libitum from the start of administration of the test substance. The composition of the groups and the administered test substances [in parentheses] are as follows.
Group 3: compound (Ia) administration group [compound (Ia) (1.0 mg/kg)]
Group 4: olmesartan medoxomil administration group [olmesartan medoxomil (10 mg/kg)]
Group 5: combined administration group [compound (Ia) (1.0 mg/kg)+olmesartan medoxomil (10 mg/kg)]
The results obtained by measuring systolic blood pressure using a noninvasive sphygmomanometer for rats and mice (BP-98A, Softron Co., Ltd.) during the trough period at the 6th week of administration of the test substance (on day 42 from the start of administration of the test substance) are shown in Table 1 (the values in the table represent mean±standard error).

[2] = tested on: Dahl rats (salt-sensitive hypertensive rats); assay: Combined administration of MR antagonist and calcium antagonist: inhibitory action on blood pressure elevation (Example 2); settings: male Dahl rats, 8% salt diet, oral for 6 weeks, trough on day 41; compound (Ia) 0.1 mg/kg, amlodipine 1 mg/kg, alone or combined; mean±standard error
Protocol: In a normal group and a control group, 0.5% methyl cellulose solution was orally administered for 6 weeks, and in the other groups, a test substance was orally administered for 6 weeks. The test substance was suspended in 0.5% methyl cellulose solution and administered at a volume of 2 mL/kg. Additionally, in the groups other than the normal group, an 8% salt diet (FR-2 containing 8% NaCl, manufactured by Funabashi Farm Co., Ltd.) was given ad libitum from the start of administration of the test substance. The composition of the groups, the administered test substances [ in parentheses], and the number of rats (n) per group are as follows.
Group 4: amlodipine administration group [amlodipine (1 mg/kg)] n=6

[3] = tested on: Dahl rats (salt-sensitive hypertensive rats); assay: Combined administration of MR antagonist and diuretic: inhibitory action on blood pressure elevation (Example 3); settings: male Dahl rats, 8% salt diet, oral for 6 weeks, trough on day 40; compound (Ia) 0.3 mg/kg, hydrochlorothiazide 1 mg/kg, alone or combined; mean±standard error
Protocol: (§2) Male Dahl rats (DIS/Eis [Dahl-Iwai S], SPF grade, supplier: Japan SLC, Inc., salt-sensitive hypertensive rats) at 7 weeks of age were divided into groups (6 or 9 rats per group).
as §1, with “groups,” for “groups and”, “the parentheses], and the number of rats (n) per group” for “parentheses]”, “follows. […]” for “follows.”
(§3) Systolic blood pressure was measured by using a noninvasive sphygmomanometer for rats and mice (BP-98A, Softron Co., Ltd.) during the trough period at the 6th week of administration of the test substance (on day 40 from the start of administration of the test substance). In addition, on day 41 from the start of administration of the test substance, urine collection for 24-hour was performed using a metabolic cage (2100-R, Watanabe Isolator Systems Co., Ltd.), and the daily urinary protein excretion per body weight was calculated.

[4] = tested on: Dahl rats (salt-sensitive hypertensive rats); assay: Combined administration of MR antagonist and diuretic: inhibitory action on proteinuria (Example 3); settings: male Dahl rats, 8% salt diet, oral for 6 weeks, 24-hour urine collection on day 41; compound (Ia) 0.3 mg/kg, hydrochlorothiazide 1 mg/kg, alone or combined; mean±standard error
Protocol: as §2
as §1, with “groups,” for “groups and”, “the parentheses], and the number of rats (n) per group” for “parentheses]”, “follows. […]” for “follows.”
as §3

Compound | Systolic blood pressure [1] [mmHg] | Systolic blood pressure [2] [mmHg] | Systolic blood pressure [3] [mmHg] | Daily urinary protein excretion [4] [mg/kg/day]
Cc1c(C(=O)Nc2ccc(S(C)(=O)=O)cc2)cn(CCO)c1-c1ccccc1C(F)(F)F (atropisomer, axis not shown) [compound (Ia), (S)-1-(2-hydroxyethyl)-4-methyl-N-[4-(methylsulfonyl)phenyl]-5-[2-(trifluoromethyl)phenyl]-1H-pyrrole-3-carboxamide] | 170 ± 4 | 207 ± 7 | 196 ± 7 | 190 ± 16
NS(=O)(=O)c1cc2c(cc1Cl)NCNS2(=O)=O [hydrochlorothiazide, 6-chloro-3,4-dihydro-2H-1,2,4-benzothiadiazine-7-sulfonamide 1,1-dioxide, reference compound] | – | – | 212 ± 3 | 320 ± 65
